ChEMBL document CHEMBL1139002, “Synthesis and biological evaluation of simplified mycothiazole analogues” (2006)

tested on: Nippostrongylus brasiliensis; assay: Anthelmintic activity against Nippostrongylus brasiliensis; type: functional

Q: For `C=CCC1COC(C(C)(C)C(C/C=C\CNC(=O)OC)OC(C)=O)=N1` (stereo not drawn), which LC50 is on record?
A: The LC50 was 40 µM.

Q: `C=CC/C=C\C[C@@H]1CSC(C(C)(C)C(C/C=C\CNC(=O)OC)OC(C)=O)=N1` (stereo partly drawn) was tested. Which LC50 did it give?
A: The LC50 was > 300 µM.

Q: Which LC50 does the source give for `C=CC/C=C\C[C@@H]1COC(C(C)(C)C(C/C=C\CNC(=O)OC)OC(C)=O)=N1` (stereo partly drawn) here?
A: The LC50 was 40 µM.

Q: For `CCCSc1ccc2[nH]c(NC(=O)OC)nc2c1` [ALBENDAZOLE], which LC50 is on record?
A: The LC50 was 0.34 µM.

tested on: HCT-15; assay: Cytotoxicity against HCT15 cell line by SRB assay; type: functional, Homo sapiens

Q: `C=CCC1COC(C(C)(C)C(C/C=C\CNC(=O)OC)OC(C)=O)=N1` (stereo not drawn) was tested. Which IG50 did it give?
A: Its IG50 is 430 µM.

Q: Which IG50 does the source give for `C=CC/C=C\C[C@@H]1CSC(C(C)(C)C(O)C/C=C\CNC(=O)OC)=N1` (stereo partly drawn) here?
A: Its IG50 is 13 µM.

Q: How did the IG50 turn out when `C=CC/C=C\C[C@@H]1COC(C(C)(C)C(C/C=C\CNC(=O)OC)OC(C)=O)=N1` (stereo partly drawn) was run?
A: The IG50 was 150 µM.

Q: With `CO[C@@]12[C@H](COC(N)=O)C3=C(C(=O)C(C)=C(N)C3=O)N1C[C@@H]1N[C@@H]12` [MITOMYCIN] as the molecule, how does the IG50 read?
A: Its IG50 is 1.6 µM.
